Measured values from article PMC5691209, “Specific Targeting of Melanotic Cells with Peptide Ligated Photosensitizers for Photodynamic Therapy” (Scientific Reports, 2017).

Key:
[1] = tested on: B16-F10 mouse melanoma cells; assay: Melanin assay (extra- and intracellular melanin production); assay type: cell-based; settings: B16-F10, 72 h at 37 °C, OD at 475 nm, α-MSH 10 nM, NAP, HPPH-NAP, MB, HPPH 1 µM, mean of three independent experiments
Procedure: B16-F10 mouse melanoma cells or human mid-pigmented melanoma cells FM55 were seeded in Nunc 6-well tissue culture plates using DMEM medium without phenol red. After overnight incubation of the cells at 37 °C, various photosensitizers (1 µM) or peptide conjugated photosensitizers (1 µM) were added at room temperature and the cells were incubated at 37 °C for 72 h. After three days of incubation, supernatants of cell (200 µL) were pipetted out from Nunc 6-well tissue culture plates as extracellular melanin pigment and three concurrent absorption measurements were taken at 475 nm using a Spectra Max MS microplate/cuvette reader (Fig. 3c,e). Adherent cells in the Nunc 6-well plates were detached with 0.02% EDTA and centrifuged at 2000 rpm for 3 min. […] Three concurrent absorption measurements were taken at 475 nm using a Spectra Max MS microplate/cuvette reader (Fig. 3d,f). […]
B16-F10 and FM55 melanin assays are represented as the average of three independent experiments expressed as Mean ± SEM. Differences between various groups were calculated using one way ANOVA post Bonferroni’s multiple comparison test and results were reported as significant if P-value was below 0.05. Phototoxicity SRB data of B16-F10, MeL, FM55 and N/TERT-1 was analyzed via student t test and significance was reported if P-value was below 0.05.

B16-F10 melanoma cells = assay: Cell proliferation with LED light irradiation (Incucyte confluence); assay type: cell-based, mouse; settings: 5 µM
Procedure: B16-F10 murine melanoma cells were seeded at a density of 3000–4000 cells per well in 96-well black-view Perkin-Elmer plates using DMEM medium without phenol red. After an overnight incubation at 37 °C, the medium was aspirated from the wells and varying concentrations of synthetic peptide-photosensitizer constructs diluted in DMEM medium were added to the cells. The cells were incubated in dark at 37 °C for 4 h and then washed twice with 1X PBS buffer (200 µL). Fresh medium (300 µL) was added to the wells before placing the plates in the Incucyte ZOOM live cell imaging machine to capture the images after every hour. Percentage of confluence was measured over a time period of 24–72 h. For skin keratinocyte cell line N/TERT-1, the starting confluence was 75–85% of cell density for the initial light experiments. The higher cell density was used to mimic the physiological condition in the body, where keratinocytes are present in much larger numbers (30:1) than melanocytes.
This combinatorial equipment comprises light irradiation system with multiple wavelengths LED (From UVA to near IR) assembled with well-established incucyte that contains incubator and light microscope. […] Incucyte light microscope was used to capture images of the cell growth at every hour or two, from which percentage confluence (i.e. cell densities) were calculated. […]

Compound | extra- and intracellular melanin production [1] | light induced cytotoxicity (cell proliferation) (B16-F10 melanoma cells; B16-F10, 627 nm LED light 0.10 mW/cm^2, 48 h continuously) | light induced cytotoxicity (cell proliferation) (B16-F10 melanoma cells; B16-F10, 660 nm LED light 0.10 mW/cm^2, 48 h continuously)
2-(1-hexyloxyethyl)-2-devinyl pyropheophorbide [HPPH] | did not induce any melanin production | cytotoxicity was observed | cytotoxicity was observed
CN(C)c1ccc2nc3ccc(=[N+](C)C)cc-3sc2c1 [MB, methylene blue] | did not induce any melanin production | – | –
